Measurements from ChEMBL document CHEMBL5579832, “Design, synthesis, and biological evaluation of pyrido[2,3-d]pyrimidin-7(8H)-one derivatives as potent USP1 inhibitors” (Eur J Med Chem, 2024).
Active and inactive are the calls of the source. The rule behind the calls is not given here.

Key:
[1] = target: T1, Ubiquitin carboxyl-terminal hydrolase 1/WD repeat-containing protein 48 (Homo sapiens) (UniProt O94782+Q8TAF3); assay: Inhibition of USP1-UAF1 complex (unknown origin) using Ub-7-amido-4-methylcoumarin as substrate at 10 uM incubated for 2 hrs by fluorescence based analysis relative to control; assay type: protein-complex assay
[2] = target: Ubiquitin carboxyl-terminal hydrolase 1/WD repeat-containing protein 48 (Homo sapiens, UniProt O94782); assay: Inhibition of USP1-UAF1 complex (unknown origin) using Ub-7-amido-4-methylcoumarin as substrate incubated for 2 hrs by fluorescence based analysis; assay type: protein-complex assay
Sequence of Ubiquitin carboxyl-terminal hydrolase 1/WD repeat-containing protein 48 (O94782 whole entry): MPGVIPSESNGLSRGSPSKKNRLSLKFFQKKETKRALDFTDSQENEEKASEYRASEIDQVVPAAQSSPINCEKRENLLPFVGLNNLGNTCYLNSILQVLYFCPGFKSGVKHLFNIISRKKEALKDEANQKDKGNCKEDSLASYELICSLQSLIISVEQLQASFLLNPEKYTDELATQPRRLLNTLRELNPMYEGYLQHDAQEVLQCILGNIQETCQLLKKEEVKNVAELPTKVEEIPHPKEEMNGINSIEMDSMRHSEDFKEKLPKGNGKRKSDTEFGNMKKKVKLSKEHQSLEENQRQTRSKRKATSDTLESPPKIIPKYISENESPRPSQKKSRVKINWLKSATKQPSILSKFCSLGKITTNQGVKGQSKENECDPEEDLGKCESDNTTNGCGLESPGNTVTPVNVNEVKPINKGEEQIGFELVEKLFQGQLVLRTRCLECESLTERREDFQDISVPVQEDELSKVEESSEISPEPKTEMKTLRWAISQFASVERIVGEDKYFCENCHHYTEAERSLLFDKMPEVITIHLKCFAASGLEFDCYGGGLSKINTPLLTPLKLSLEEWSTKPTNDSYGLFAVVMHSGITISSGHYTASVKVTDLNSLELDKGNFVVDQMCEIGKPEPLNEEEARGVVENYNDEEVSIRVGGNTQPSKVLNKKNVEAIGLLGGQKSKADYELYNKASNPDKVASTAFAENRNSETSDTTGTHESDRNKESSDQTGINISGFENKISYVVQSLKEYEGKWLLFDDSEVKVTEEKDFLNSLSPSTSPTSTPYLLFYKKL
Sequence of Ubiquitin carboxyl-terminal hydrolase 1/WD repeat-containing protein 48 (Q8TAF3 whole entry, further chain): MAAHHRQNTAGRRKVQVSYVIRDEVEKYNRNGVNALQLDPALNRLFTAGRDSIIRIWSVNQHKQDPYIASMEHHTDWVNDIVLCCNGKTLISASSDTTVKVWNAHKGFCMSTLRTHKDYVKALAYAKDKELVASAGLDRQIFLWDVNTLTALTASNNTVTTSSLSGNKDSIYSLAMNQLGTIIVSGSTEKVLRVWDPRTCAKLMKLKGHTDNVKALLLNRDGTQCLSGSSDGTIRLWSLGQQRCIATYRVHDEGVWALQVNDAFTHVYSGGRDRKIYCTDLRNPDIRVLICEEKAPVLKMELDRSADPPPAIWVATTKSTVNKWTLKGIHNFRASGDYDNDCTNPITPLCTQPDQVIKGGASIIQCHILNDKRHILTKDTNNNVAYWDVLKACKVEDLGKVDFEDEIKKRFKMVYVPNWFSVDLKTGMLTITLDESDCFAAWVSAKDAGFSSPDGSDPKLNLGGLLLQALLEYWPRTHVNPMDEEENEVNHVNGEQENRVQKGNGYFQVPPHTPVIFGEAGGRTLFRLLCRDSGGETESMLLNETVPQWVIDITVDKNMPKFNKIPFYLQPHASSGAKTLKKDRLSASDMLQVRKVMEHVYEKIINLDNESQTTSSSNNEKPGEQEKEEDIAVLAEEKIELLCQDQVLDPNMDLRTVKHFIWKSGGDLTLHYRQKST

NCI-H1299 = assay: Inhibition of colony formation in human NCI-H1299 cells at 0.5 uM measured after 7 days by SRB staining based assay relative to control; assay type: functional; conditions: NCI-H1299, 168 h, time 7 day
MDA-MB-436 = assay: Induction of cell cycle arrest in human MDA-MB-436 cells assessed as increase in cells at S phase at 1 uM incubated for 24 hrs by PI staining based flow cytometry analysis; assay type: functional
[3] = target: T1, Ubiquitin carboxyl-terminal hydrolase 1/WD repeat-containing protein 48 (Homo sapiens); conditions: NCI-H1299, dose 20-500 nM, time 24.0 hrs
[4] = test system: Olaparib-resistant MDA-MB-436; assay: Inhibition of colony formation in human Olaparib-resistant MDA-MB-436 cell assessed as cell killing at 100 nM measured after 7 days by SRB staining based assay; assay type: functional; conditions: time 7.0 day

With `COc1ncnc(C2CC2)c1-c1ncc2ccc(=O)n(Cc3ccc(-n4ccnc4)cc3)c2n1` as the compound, how does the inhibition [1] read?
The inhibition was 56.9%.

How did the IC50 [2] turn out when `COc1cccc(OC)c1-c1ncc2ccc(=O)n(Cc3ccc(-c4nc(C(F)(F)F)cn4C(C)C)cc3)c2n1` was run?
Its IC50 is 18.8 nM.

And the inhibition at 0.5 µM (NCI-H1299)?
The inhibition at 0.5 µM was 70%.

What about the Activity (MDA-MB-436) of the same compound?
The Activity was “Active”.

What about the inhibition [3] of the same compound?
Its inhibition is “Dose-Dependent Effect”.

Which IC50 [2] does the source give for `COc1ccccc1-c1ncc2ccc(=O)n(Cc3ccc(-c4nc(C(F)(F)F)cn4C(C)C)cc3)c2n1` here?
Its IC50 is > 10000 nM.

`COc1ncnc(C2CC2)c1-c1ncc2ccc(=O)n(Cc3ccc(-c4ccc(C(F)(F)F)cn4)cc3)c2n1` was tested. Which IC50 [2] did it give?
The IC50 was > 10000 nM.

What does the source list for `COc1ncnc(C2CC2)c1-c1ncc2ccc(=O)n(Cc3ccc(-n4nc(C(F)(F)F)cc4C)cc3)c2n1`?
inhibition at 0.5 µM (NCI-H1299): 70%; Activity (MDA-MB-436): Active; inhibition [3]: Dose-Dependent Effect

How did the IC50 [2] turn out when `COc1cc(-c2nc(C(F)(F)F)cn2C(C)C)ccc1Cn1c(=O)ccc2cnc(-c3c(OC)ncnc3C3CC3)nc21` was run?
Its IC50 is 319 nM.

Which IC50 [2] does the source give for `CC(C)n1cc(C(F)(F)F)nc1-c1ccc(Cn2c(=O)ccc3cnc(-c4ccccc4C(F)(F)F)nc32)cc1` here?
The IC50 was 195 nM.

With `COc1cccc(F)c1-c1ncc2ccc(=O)n(Cc3ccc(-c4nc(C(F)(F)F)cn4C(C)C)cc3)c2n1` as the compound, how does the IC50 [2] read?
Its IC50 is 23.3 nM.

Which inhibition [1] does the source give for `COc1ncnc(C2CC2)c1-c1ncc2ccc(=O)n(Cc3ccc(-c4nc(C(F)(F)F)cn4C(C)C)c(C)c3)c2n1` here?
The inhibition was 77.9%.

With `COc1ncnc(C2CC2)c1-c1ncc2ccc(=O)n(Cc3ccc(-c4nc(C(F)(F)F)cn4CC4CC4)cc3)c2n1` as the compound, how does the IC50 [2] read?
The IC50 was 11.2 nM.

Which IC50 [2] does the source give for `COc1ncnc(C2CC2)c1-c1ncc2ccc(=O)n(Cc3ccc(-c4cccc(C(F)(F)F)n4)cc3)c2n1` here?
Its IC50 is 59.9 nM.

How did the Activity (MDA-MB-436) turn out when `COc1ncnc(C2CC2)c1-c1ncc2cnn(Cc3ccc(-c4nc(C(F)(F)F)cn4C(C)C)cc3)c2n1` was run?
Its Activity is “Active”.

Which IC50 [2] does the source give for `CC(C)n1cc(C(F)(F)F)nc1-c1ccc(Cn2c(=O)ccc3cnc(-c4cccc5cnn(C)c45)nc32)cc1` here?
Its IC50 is > 10000 nM.

With `Cc1ccccc1-c1ncc2ccc(=O)n(Cc3ccc(-c4nc(C(F)(F)F)cn4C(C)C)cc3)c2n1` as the compound, how does the IC50 [2] read?
Its IC50 is 511 nM.

For `CC(C)c1ccccc1-c1ncc2ccc(=O)n(Cc3ccc(-c4nc(C(F)(F)F)cn4C(C)C)cc3)c2n1`, which IC50 [2] is on record?
Its IC50 is 33.9 nM.

For `CC(C)n1cc(C(F)(F)F)nc1-c1ccc(Cn2c(=O)ccc3cnc(-c4ccccc4Cl)nc32)cc1`, which IC50 [2] is on record?
Its IC50 is 729 nM.

`CC(C)n1cc(C(F)(F)F)nc1-c1ccc(Cn2c(=O)ccc3cnc(-c4cccc5ncsc45)nc32)cc1` was tested. Which IC50 [2] did it give?
The IC50 was > 10000 nM.

With `CC(C)n1cc(C(F)(F)F)nc1-c1ccc(Cn2c(=O)ccc3cnc(-c4c(Cl)cccc4Cl)nc32)cc1` as the compound, how does the IC50 [2] read?
Its IC50 is > 10000 nM.

`COc1ncccc1-c1ncc2ccc(=O)n(Cc3ccc(-c4nc(C(F)(F)F)cn4C(C)C)cc3)c2n1` was tested. Which inhibition [1] did it give?
Its inhibition is 63.9%.

With `CC(C)n1cc(C(F)(F)F)nc1-c1ccc(Cn2c(=O)ccc3cnc(-c4ccccc4F)nc32)cc1` as the compound, how does the IC50 [2] read?
Its IC50 is 835 nM.

How did the IC50 [2] turn out when `COc1ncnc(C2CC2)c1-c1ncc2ccc(=O)n(Cc3c(F)cc(-c4nc(C(F)(F)F)cn4C(C)C)cc3F)c2n1` was run?
Its IC50 is 246 nM.

For `CC(C)n1cc(C(F)(F)F)nc1-c1ccc(Cn2c(=O)ccc3cnc(-c4c(Cl)cnn4C(C)C)nc32)cc1`, which IC50 [2] is on record?
Its IC50 is > 10000 nM.

For `CC(C)n1cc(C(F)(F)F)nc1-c1ccc(Cn2c(=O)ccc3cnc(-c4ccccc4OC(F)(F)F)nc32)cc1`, which IC50 [2] is on record?
Its IC50 is 39.8 nM.

For `CC(C)n1cc(C(F)(F)F)nc1-c1ccc(Cn2c(=O)ccc3cnc(-c4c(F)cccc4Cl)nc32)cc1`, which IC50 [2] is on record?
The IC50 was > 10000 nM.

How did the IC50 [2] turn out when `COc1ncnc(C2CC2)c1-c1ncc2ccc(=O)n(C(C)c3ccc(-c4nc(C(F)(F)F)cn4C(C)C)cc3)c2n1` (centres undefined) was run?
The IC50 was 83.9 nM.

`CC(C)n1cc(C(F)(F)F)nc1-c1ccc(Cn2c(=O)ccc3cnc(-c4ccnn4C(C)C)nc32)cc1` was tested. Which inhibition [1] did it give?
Its inhibition is 56.6%.

How did the inhibition [1] turn out when `COc1ncnc(C2CC2)c1-c1ncc2ccc(=O)n(Cc3ccc(-n4cccc4)cc3)c2n1` was run?
Its inhibition is 71.6%.

Which inhibition [4] does the source give for `O=C(c1cc(Cc2n[nH]c(=O)c3ccccc23)ccc1F)N1CCN(C(=O)C2CC2)CC1` here?
The inhibition was “inactive”.

For `Cc1cnn(C)c1-c1ncc2ccc(=O)n(Cc3ccc(-c4nc(C(F)(F)F)cn4C(C)C)cc3)c2n1`, which IC50 [2] is on record?
Its IC50 is > 10000 nM.

`COc1ncnc(C2CC2)c1-c1ncc2ccc(=O)n(Cc3ccc(-c4nc(C(F)(F)F)cn4C(C)C)c(F)c3)c2n1` was tested. Which IC50 [2] did it give?
Its IC50 is 22.8 nM.

For `CC(C)n1cc(C(F)(F)F)nc1-c1ccc(Cn2c(=O)ccc3cnc(-c4ccn(C)n4)nc32)cc1`, which IC50 [2] is on record?
The IC50 was > 10000 nM.

`COc1ncnc(C2CC2)c1-c1ncc2ccc(=O)n(Cc3ccc(-n4ccnn4)cc3)c2n1` was tested. Which inhibition [1] did it give?
Its inhibition is 54.6%.

For `Cc1cnn(C(C)C)c1-c1ncc2ccc(=O)n(Cc3ccc(-c4nc(C(F)(F)F)cn4C(C)C)cc3)c2n1`, which IC50 [2] is on record?
Its IC50 is > 10000 nM.

`CC(C)n1cc(C(F)(F)F)nc1-c1ccc(Cn2c(=O)ccc3cnc(-c4ccnn4C)nc32)cc1` was tested. Which IC50 [2] did it give?
Its IC50 is > 10000 nM.
